Measured values from PubChem BioAssay (NCI).
Values joined by “and” are separate entries in the source; they are usually repeats but may differ in a detail not shown here. Equal entries are not always repeated.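 The compound was tested at five concentrations on cells cultured in 96-well plates, with a 48-hour exposure period. Abbreviation: GI50, concentration required for 50% inhibition of growth. TGI denotes the concentration required for complete inhibition of growth.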

Columns and labels:
BT-549 breast = assay: growth of human tumour cells (NCI), 48 h
HS 578T breast = assay: growth of human tumour cells (NCI), 48 h

| Structure (SMILES) | GI50 (BT-549 breast) | TGI (BT-549 breast) | GI50 (HS 578T breast) | TGI (HS 578T breast) |
| --- | --- | --- | --- | --- |
| NC(=O)c1c(NC(=O)c2ccc(C(F)(F)F)cc2Cl)sc2c1CCC(=O)C2 | 0.294 µM | 1.91 µM | 0.368 µM | 5.94 µM |
| Nc1ccccc1SC(CC(=O)c1ccccc1)c1c(Cl)cccc1Cl (stereo not drawn) | 3.46 µM | 13.3 µM | 4.48 µM | 49.5 µM |
| Cc1c(C(=O)Nc2ccc(Oc3ccnc4cc(OCC(C)(C)O)ccc34)c(F)c2)c(=O)n(-c2ccccc2)n1C | 4.53 µM | > 100 µM | 3.04 µM | > 100 µM |
| COc1ccc(/C(=N/O)c2cc(F)c(F)c(OC)c2F)cc1O | – | – | 0.938 µM | > 100 µM |
| O=C1C=CC(=O)N1c1ccc2ccccc2c1 | 14.3 µM | 27.8 µM | 14.4 µM | 53.4 µM |
| C=CC(=O)N1CCN(c2nc(OC[C@@H]3CCCN3C)nc3c(F)c(-c4nc(N)cc(C)c4C(F)(F)F)c(Cl)cc23)[C@@H](C)C1 | 1.71 µM | 3.32 µM | 1.83 µM | 4.53 µM |
| Cc1nc2sc(C(=O)Nc3cccc4c3OCCO4)c(N)c2cc1C(C)O (stereo not drawn) | – | – | 3.07 µM | > 100 µM |
| O=C(N/N=C/c1coc2ccc(Cl)cc2c1=O)c1cc(O)c(O)c(O)c1 | 23.3 µM | 96.6 µM | 18.3 µM | 73.3 µM |
| O=C1c2ccccc2-n2c1nc1ccc([N+](=O)[O-])cc1c2=O | – | > 100 µM | – | > 100 µM |
| O=C1c2c[n+](Cc3ccccc3)ccc2-c2nc3ccccc3c3ccnc1c23 | 1.15 µM | 4.85 µM | 1.03 µM | 10.2 µM |
| O=NN(CC(=O)NNc1ccccc1)CC(=O)NNc1ccccc1 | > 28.7 µM | > 100 µM | > 100 µM | > 100 µM |
| CCn1cnc(C[C@H](NC(=O)[C@@H](NC(=O)Nc2cc(C(F)(F)F)cc(C(F)(F)F)c2)C(C)(C)C)C(=O)OC)c1 | > 10 µM | > 10 µM | > 10 µM | > 10 µM |
| COC(=O)c1cc2c3cc(Cl)ccc3[nH]c2c2ncccc12 | > 100 µM | > 100 µM | – | – |
| C(#Cc1ccccc1C#Cc1cnccn1)c1cnccn1 | 21.6 µM | > 85.8 µM | 34.9 µM | > 100 µM |
| CCCCCCCCCCCCNCCCc1ccccc1 | 1.75 µM | 3.19 µM | 1.66 µM | 3.72 µM |
| O=C(Nc1cccc2[nH]c(C(F)(F)F)nc12)c1ccc(Br)cc1F | 3.01 µM | 10.3 µM | 3.54 µM | 22.8 µM |
| CC(=O)OC1C(C)OC(Oc2c(-c3ccc(O)cc3)oc3cc(O)cc(O)c3c2=O)C(O)C1OC(C)=O (stereo not drawn) | 19.9 µM | 54.8 µM | 24.9 µM | 82.4 µM |
| Nc1ncnc2occ(-c3ccc(NC(=O)Nc4cccc(C(F)(F)F)c4)cc3)c12 | 4.32 µM | 10.5 µM | 0.973 µM | 6.74 µM |
| O=C(NCCc1nccs1)c1cnc2c(S)cccc2c1 | 2.61 µM | > 100 µM | 6.28 µM | 80.5 µM |
| O=C(Nc1ccc(Br)cc1)c1cc(Br)ccc1O | 0.327 µM and 0.724 µM | 2.12 µM and 3.03 µM | 0.302 µM and 0.455 µM | 2.94 µM |
| Nc1ncnc2c1ncn2C1OC(F)(COS(N)(=O)=O)C(O)C1O (stereo not drawn) | > 100 µM | > 100 µM | > 100 µM | > 100 µM |
| CC(C)(C)c1ccc(OCCCCCCCN2CCNCC2)cc1 | 1.53 µM | 3.01 µM | 1.92 µM | 4.77 µM |
| COc1cccc2c1C(=O)c1c(O)c3c(c(O)c1C2=O)C[C@@](O)(C(=O)CO)C[C@@H]3OC1CC2C(OCN2CN2COC3C(C)OC(O[C@H]4C[C@](O)(C(=O)CO)Cc5c(O)c6c(c(O)c54)C(=O)c4c(OC)cccc4C6=O)CC32)C(C)O1 (stereo partly drawn) | 0.024 µM | > 0.46 µM | 0.0394 µM | > 1 µM |
| CCOC(=O)c1c(C)n(Cc2ccc(Cl)cc2Cl)c2c1cc(O)c1[nH]c(Cc3ccccc3)nc12 | 2.77 µM | 7.02 µM | 1.53 µM | 3.8 µM |
| O=C(/C=C/c1cccc(Cl)c1)c1ccccc1 | – | – | 2.1 µM | 7.45 µM |
| Cc1cc(N)c2cc(NC(=O)/C=C\c3ccccc3Cl)ccc2n1 | 1.58 µM | 3.01 µM | 1.82 µM | 3.88 µM |
| COc1cc(/C=C2\CC3C4CC=C5C[C@@H](N6CCCC6)CC[C@]5(C)C4CC[C@]3(C)[C@H]2OC(C)=O)ccc1OCCCn1ccnc1 (stereo partly drawn) | 2.19 µM | 9.72 µM | 5.76 µM | 16.4 µM |
| CCOC(=O)CCC(NC(=O)c1ccc(Oc2nc3cc(N)cc(N)c3nc2-c2ccccc2)cc1)C(=O)OCC (stereo not drawn) | 33.7 µM | > 100 µM | 43.7 µM | > 100 µM |
| CCc1n(Cc2ccc3ccccc3c2)cc[n+]1Cc1ccc2ccccc2c1 | 0.674 µM | 2.12 µM | 1.5 µM | 5.62 µM |
| O=[N+]([O-])c1cc2c(ccc3ccccc32)o1 | – | – | 1.4 µM | 5.28 µM |
